This is an account of results in patent US7605175B2, “Inhibitors of cyclin-dependent kinases, compositions and uses related thereto” (GPC Biotech AG, priority 2001, dated 2009).

For one assay, the target named is T1, Cdc2/cyclin B (Homo sapiens, UniProt P06493).
T1 construct: purchased
Nature of the assay: Biochemical kinase assay Cdc2/cyclin B. The settings on record: Table 6. An outline of the steps: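 Radiometric TCA-precipitation assay measuring [γ-32P]ATP incorporation into Histone H1 (20 μg); 50 μM ATP, 10% DMSO, Tris pH 7.5 with MgCl2 and DTT. Compounds at 1 nM to 10 μM; reaction 20 min at 30 °C, stopped with EDTA/ATP. Activity relative to DMSO control after subtracting 50 mM EDTA background.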

For the next assay, the system named is arrested IMR90 cells. Briefly: Arrested cell assay, arrested IMR90 normal cells. The settings on record: Homo sapiens, IMR-90. The class given is cell-based. The procedure:
(§1) Cyclin-dependent kinase (Cdk) activity is required to promote the progression of cells through distinct phases of the cell division cycle. The proliferation of normal, non-transformed, cells in culture requires the presence of growth factors, the removal of which, through serum deprivation, leads to a loss of Cdk activity and consequent exit from the cell cycle as cells enter the quiescent phase, G0.
IMR90 cells were plated in triplicate for each compound concentration to be tested in MEM-A media containing 10% fetal calf serum at a density of either 2,000 or 20,000 cells per well in 24-well dishes and incubated overnight at 37° C., 5% CO2. The media was removed from the 20,000 cell-per-well dish, cells were washed once with serum-free media, and serum-free media was placed on cells. The plates containing cells both in the presence and absence of serum were incubated for 3 additional days.
(§2) The cells are incubated in the presence of the compounds for 72 hours (3 days) at 37° C. […] Cycling and arrested HCT-116 cells as well as cycling IMR90 cells were exposed to a panel of 6 doses ranging from 5 to 250 nM. For arrested normal cells, the range of doses was increased to 50 nM to 25 μM, to compensate for the expected decrease in activity.
(§3) The effect of 72 hours of compound exposure on cellular viability was assessed in the Calcein AM assay. Calcein AM is a fluorescent substrate of intracellular esterases that are only active in viable cells. Cleavage of the substrate thus provides a measure of viability, which is proportional to cell number.
(§4) A Calcein AM stock solution was prepared by dissolving a 50 μg aliquot (Molecular Probes catalogue # C3100) in 50 μl DMSO. The tube was incubated at room temperature for approximately 10 minutes to ensure that the Calcein had dissolved completely. The calcein was diluted into 10 ml PBS to prepare the final solution, which was protected from light.
(§5) The media was aspirated off the cells, which were then washed twice with 1 ml PBS to remove the PBS completely from cells by aspiration. 0.5 ml of the Calcein/PBS solution was transferred by pipette into each well. The plates were incubated at 37° C. for 75 minutes (protected from light) and read on a fluorescent plate reader (excitation 485/20 and emission 530/25).

The subject of the next assay is arrested HCT-116 cells. Briefly: Arrested cell assay, arrested HCT-116 tumor cells. The class given is cell-based. The settings on record: Homo sapiens. The procedure: as §1
HCT-116 cells were plated in triplicate for each compound concentration to be tested in RPMI 1640 media containing 10% fetal calf serum at a density of either 200 or 2,000 cells per well in 24 well dishes, and incubated overnight at 37° C., 5% CO2. The media from the plate containing 2,000 cells per well was removed, cells were washed once with serum free media and 1 ml of serum free media was placed on cells. The plates containing cells both in the presence and absence of serum were incubated for 6 additional days.
as §2, §3, §4, §5

Assay [1] concerns NCI panel of 60 cell lines. Briefly: NCI panel of human tumor cell lines (SRB), Mean-Graph Mid-point. The class given is cell-based. From the text: The evaluation of compounds at the National Cancer Institute in their panel of 60 cell lines provides a wealth of information regarding efficacy in a wide range of tumor types and genetic backgrounds. Included within this panel are cell lines derived from leukemia, melanoma and cancers of the lung, colon, brain, ovary, breast, prostate and kidney. Use of this panel provides a measure of the efficacy of compounds in cells with alterations in many genes that are associated with neoplastic transformation including p53 and Her2/Neu as well as those involved in metabolism and those which confer multi-drug resistance. The data generated in these cell lines with the protocol described below can be used to evaluate the activity of compounds.
Cells were grown in RPMI-1640 10% FCS and plated in 96 well micro-titer plates at densities ranging from 5,000 to 40,000 cells/well. The plates were incubated for 24 hours at 37° C., 5% CO2 for 24 hours. Media containing twice the desired final concentration of the compound (5 doses spanning 4 logs) was prepared and 100 μl was added to each well containing 100 μl media plus cells to yield the desired final concentration. The plates were then incubated for an additional 48 hours.
The effect of the compound on cellular viability was determined with the Sulforhodamine B (SRB) assay, which measures total protein. Cells were fixed with cold TCA to a final concentration of 10% and incubated at 4° C. for 60 minutes. The supernatant was discarded and the plates were washed five times with water and air-dried. SRB solution at […] in 1% acetic acid was added to each well and the plates were incubated for 10 minutes at room temperature. The plates were washed five times with 1% acetic acid and air-dried. The bound stain was solubilized with 10 mM trizma base and the absorbance was read on a plate reader at […].

The mark [2] stands for this setting: read-out: IC50 for arrested IMR90 cells.
Where [3] appears, read: read-out: IC50 for arrested HCT-116 cells.
The mark [4] stands for this setting: NCI assay, read-out: Mean-Graph Mid-point.

Read-outs that look alike come from different tables or passages of the source. A value given as a limit tells only on which side of the number the result lay.

T1 sequence (P06493 whole entry, species assumed): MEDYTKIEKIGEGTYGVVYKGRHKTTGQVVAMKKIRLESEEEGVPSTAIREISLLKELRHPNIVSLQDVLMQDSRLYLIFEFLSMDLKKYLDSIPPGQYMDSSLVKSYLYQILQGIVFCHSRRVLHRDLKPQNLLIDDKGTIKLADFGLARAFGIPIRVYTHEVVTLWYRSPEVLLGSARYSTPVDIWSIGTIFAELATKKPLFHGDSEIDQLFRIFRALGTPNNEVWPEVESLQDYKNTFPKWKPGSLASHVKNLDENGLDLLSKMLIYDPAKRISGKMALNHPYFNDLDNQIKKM
T1 sequence (P14635 whole entry partner, species assumed): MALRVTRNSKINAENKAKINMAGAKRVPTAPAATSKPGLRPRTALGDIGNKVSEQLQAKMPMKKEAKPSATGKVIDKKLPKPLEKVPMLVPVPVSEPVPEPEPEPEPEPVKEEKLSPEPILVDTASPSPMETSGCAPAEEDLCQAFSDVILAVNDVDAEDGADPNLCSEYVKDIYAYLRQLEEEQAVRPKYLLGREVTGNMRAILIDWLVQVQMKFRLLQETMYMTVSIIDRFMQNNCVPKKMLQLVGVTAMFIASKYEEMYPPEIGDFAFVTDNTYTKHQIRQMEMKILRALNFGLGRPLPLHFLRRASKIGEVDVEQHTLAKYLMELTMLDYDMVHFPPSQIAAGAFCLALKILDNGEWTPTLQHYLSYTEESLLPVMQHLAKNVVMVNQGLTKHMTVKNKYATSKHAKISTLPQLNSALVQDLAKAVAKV

For `CC(C)N1CCN(C(=O)COc2ccc(-c3[nH]nc4c3C(=O)c3c(NC(=O)NN5CCOCC5)cccc3-4)cc2)CC1.Cl` [Compound A37], the IC50 was less than 100 nM against Cdc2/cyclin B, more than 10000 nM in the assay on arrested IMR90 cells (setting [2]), less than 50 nM in the assay with arrested HCT-116 cells (setting [3]) and less than 50 nM in assay [1] (setting [4]).

In the case of `COCCN1CCN(Cc2ccc(-c3[nH]nc4c3C(=O)c3c(NC(=O)NN5CCOCC5)cccc3-4)cc2)CC1.Cl.Cl` [Compound B16, N-[3-(4-{[4-(2-methoxyethyl)piperazinyl]methyl}phenyl)-4-oxoindeno[2,3-d]pyrazol-5-yl](morpholin-4-ylamino)carboxamide dihydrochloride], the IC50 against Cdc2/cyclin B is less than 10 nM; in the assay on arrested IMR90 cells (setting [2]), more than 10000 nM; in the assay on arrested HCT-116 cells (setting [3]), less than 50 nM; in assay [1] (setting [4]), less than 50 nM.

Regarding `CC(C)c1nn(-c2c(Cl)cccc2Cl)c2nc(Cc3ccc(O)c(CN4CCN(C(C)C)CC4)c3)[nH]c(=O)c12` [Compound C], the IC50 in the assay with arrested IMR90 cells (serum-starved arrested cells, 72 hours, read-out: Arrested cell assay IMR90 IC50) is more than 1000 nM; with arrested HCT-116 cells (serum-starved arrested cells, 72 hours, read-out: Arrested cell assay HCT IC50), less than 10 nM; in assay [1] (read-out: NCI panel MG-MID (Mean-Graph Mid-point, average IC50 over the whole cell panel)) it was less than 100 nM.
